The source of these data is patent US7232912B2, “Indazole compounds, pharmaceutical compositions, and methods for mediating or inhibiting cell proliferation” (Agouron Pharmaceuticals, Inc., priority 2000, dated 2007).

By pKi is commonly meant the negative decadic logarithm of the Ki, by convention in mol/L. The inhibition is the drop in the measured response relative to a control, in per cent. A lower inhibition goes with little suppression. The term melting point denotes the temperature of the solid-liquid transition.

pKi: −log10 of the molar value.

For data set [1], the target named is CDK4/cyclin D3 (Homo sapiens, UniProt P11802). The experiment in a line: Inhibition of CDK4/Cyclin D Retinoblastoma Kinase Activity. The format is biochemical. To be noted: apparent Ki. The gist of the method:
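Human CDK4/cyclin D3 (full-length or cyclin D3 1–264), insect-cell expressed, at 5 or 50 nM with His-tagged Rb 386–928 substrate, 25 μM ATP plus [32P/33P]ATP, pH 7.4, 2% DMSO, 30 °C for 20 min; tight binders used 5 nM enzyme for 60 min. Filter-captured phospho-Rb quantified by phosphorimager. Apparent Ki from competitive or tight-binding inhibition fits.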

Data set [2] addresses T1, CDK2/cyclin A (Homo sapiens, UniProt P24941).
T1 construct: made in house; host or cells: CDK2: insect cells (baculovirus); cyclin A: E. coli
The experiment in a line: Inhibition of CDK2/Cyclin A Retinoblastoma Kinase Activity. The class given is biochemical. To be noted: apparent Ki. An outline of the steps: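 Baculovirus-expressed CDK2 complexed with proteolyzed cyclin A, at 150 nM or 5 nM, phosphorylating an Rb fragment with 25 µM [32/33P]ATP in HEPES pH 7.4, 2% DMSO. Reactions run 20 min at 30°C, EDTA-stopped, filter-captured; apparent Ki from competitive or tight-binding competitive fits.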

Data set [3] has as its target T2, human CHK1 (Homo sapiens, UniProt O14757).
T2 construct: C-terminally His-tagged full-length human CHK1 (FL-CHK1) was expressed using the baculovirus/insect cell system; made in house; host or cells: baculovirus/insect cells
T2 sequence (O14757 1-476): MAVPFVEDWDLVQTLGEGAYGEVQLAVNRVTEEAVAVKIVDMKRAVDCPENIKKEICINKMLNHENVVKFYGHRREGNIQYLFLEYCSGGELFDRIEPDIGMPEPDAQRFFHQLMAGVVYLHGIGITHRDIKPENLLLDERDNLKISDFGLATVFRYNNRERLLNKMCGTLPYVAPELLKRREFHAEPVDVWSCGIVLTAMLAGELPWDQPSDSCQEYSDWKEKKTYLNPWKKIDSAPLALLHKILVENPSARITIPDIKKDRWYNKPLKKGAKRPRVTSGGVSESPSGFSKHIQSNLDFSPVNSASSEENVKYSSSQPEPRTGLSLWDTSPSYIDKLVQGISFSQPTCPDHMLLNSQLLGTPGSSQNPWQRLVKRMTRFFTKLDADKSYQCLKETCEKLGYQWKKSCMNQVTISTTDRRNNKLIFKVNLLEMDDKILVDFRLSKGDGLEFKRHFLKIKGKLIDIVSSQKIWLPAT
The experiment in a line: CHK1 Assay (coupled spectrophotometric). The class given is biochemical. The text has this:
C-terminally His-tagged full-length human CHK1 (FL-CHK1) was expressed using the baculovirus/insect cell system. It contains 6 histidine residues (6×His-tag) at the C-terminus of the 476 amino acid human CHK1. The protein was purified by conventional chromatographic techniques.
The production of ADP from ATP that accompanies phosphoryl transfer to the synthetic substrate peptide Syntide-2 ([…]) was coupled to oxidation of NADH using phosphoenolpyruvate (PEP) through the actions of pyruvate kinase (PK) and lactic dehydrogenase (LDH). The oxidation of NADH was monitored by following the decrease of absorbance at 340 nm (ε340=6.22 cm^−1 mM^−1) using a HP8452 spectrophotometer. Typical reaction solutions contained: […]; 0.15 mM NADH; 28 units of LDH/ml; 16 units of PK/ml; 3 mM DTT; 0.125 mM Syntide-2; 0.15 mM ATP; 25 mM MgCl2 in 50 mM TRIS, pH 7.5; and 400 mM NaCl. Assays were initiated with 10 nM of FL-CHK1. Ki values were determined by measuring initial enzyme activity in the presence of varying concentrations of test compounds. The data were analyzed using Enzyme Kinetic and Kaleidagraph software.

CDK4/cyclin D3, sequence (P11802 2-303 limits assumed): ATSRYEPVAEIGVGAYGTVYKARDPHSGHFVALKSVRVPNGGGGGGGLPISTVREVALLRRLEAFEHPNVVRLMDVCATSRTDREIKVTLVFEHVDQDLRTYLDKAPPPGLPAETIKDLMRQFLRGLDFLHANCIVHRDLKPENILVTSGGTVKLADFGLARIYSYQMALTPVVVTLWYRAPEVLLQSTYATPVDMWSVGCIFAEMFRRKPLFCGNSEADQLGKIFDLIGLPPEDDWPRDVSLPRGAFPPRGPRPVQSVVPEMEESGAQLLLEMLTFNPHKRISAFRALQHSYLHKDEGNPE
CDK4/cyclin D3, sequence (P30281 1-264 limits assumed, further chain): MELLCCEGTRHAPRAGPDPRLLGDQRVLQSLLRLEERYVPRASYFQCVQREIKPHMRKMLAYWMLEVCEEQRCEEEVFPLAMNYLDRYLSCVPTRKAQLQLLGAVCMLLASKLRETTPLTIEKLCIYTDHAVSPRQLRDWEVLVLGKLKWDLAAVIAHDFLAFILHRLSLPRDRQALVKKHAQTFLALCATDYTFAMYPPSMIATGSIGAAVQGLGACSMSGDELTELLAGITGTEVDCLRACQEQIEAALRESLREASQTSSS

Consider `c1ccc(-c2ccc3[nH]nc(-c4nc5ccccc5[nH]4)c3c2)cc1` [Example 3, 3-(1H-Benzoimidazol-2-yl)-5-Phenyl-1H-indazole], for which the melting point was 80 to 82 °C. The pKi in data set [1] is 6.43. In data set [2], the pKi was 6.62. Moreover, the inhibition at 20 µM in data set [3] was found to be 75%.
